According to US8710065B2, “Tricyclic inhibitors of kinases” (AbbVie Inc., priority 2011, dated 2014):

Target: T1, GST-tagged-Wee1 kinase (Homo sapiens, UniProt P30291)
T1 construct: purchased Carnabio (Carna Biosciences) 05-177
Assay: Wee1 time-resolved fluorescence equilibrium binding assay (displacement of Oregon Green-labeled ATP-competitive kinase probe)
Details: read-out: Wee-1 inhibition (Ki)
Procedure: Wee1 kinase was assayed using a time-resolved fluorescence equilibrium binding assay monitoring displacement of a rapidly reversible Oregon Green-labeled ATP-competitive kinase probe (N-(2-(2-(2-(4-(4-(5-chloro-4-(2-(1-hydroxycyclobutyl)thiazol-5-yl)-1H-pyrrolo[2,3-b]pyridin-2-yl)phenyl)piperazin-1-yl)ethoxy)ethoxy)ethyl)-2′,7′-difluoro-3′,6′-dihydroxy-3-oxo-3H-spiro[isobenzofuran-1,9′-xanthene]-5-carboxamide) by competitive Wee1 inhibitors.
Table 1 depicts enzyme inhibition data (Ki) for exemplary compounds.

T1 sequence (P30291 whole entry): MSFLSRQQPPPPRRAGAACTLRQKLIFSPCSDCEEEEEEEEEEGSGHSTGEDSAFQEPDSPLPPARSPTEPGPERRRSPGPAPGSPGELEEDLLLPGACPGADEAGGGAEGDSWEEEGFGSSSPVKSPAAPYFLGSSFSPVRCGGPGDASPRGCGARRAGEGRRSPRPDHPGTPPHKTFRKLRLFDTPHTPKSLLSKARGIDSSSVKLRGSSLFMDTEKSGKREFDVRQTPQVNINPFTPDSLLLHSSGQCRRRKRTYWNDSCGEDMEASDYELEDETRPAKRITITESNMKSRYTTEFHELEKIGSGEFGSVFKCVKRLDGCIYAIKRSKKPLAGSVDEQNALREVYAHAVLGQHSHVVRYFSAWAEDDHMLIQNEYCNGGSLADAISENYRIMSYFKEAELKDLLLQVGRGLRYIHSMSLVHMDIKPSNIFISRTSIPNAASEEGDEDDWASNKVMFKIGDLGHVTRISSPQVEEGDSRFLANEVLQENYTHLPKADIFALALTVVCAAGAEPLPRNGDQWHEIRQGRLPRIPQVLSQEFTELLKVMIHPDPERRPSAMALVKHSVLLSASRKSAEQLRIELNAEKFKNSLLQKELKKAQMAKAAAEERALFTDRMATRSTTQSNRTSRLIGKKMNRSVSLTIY

For `CC(=O)N1CCc2ccc(Nc3ncc4c(=O)n(-c5ccccc5Cl)c5nccn5c4n3)cc21` [Example 12, 2-[(1-acetyl-2,3-dihydro-1H-indol-6-yl)amino]-6-(2-chlorophenyl)imidazo[1,2-a]pyrimido[5,4-e]pyrimidin-5(6H)-one], the Ki was less than 10 nM.

`O=c1c2cnc(Nc3ccc(-c4cn5ccsc5n4)cc3)nc2n2ccnc2n1-c1ccccc1Cl` [Example 222, 6-(2-chlorophenyl)-2-{[4-(imidazo[2,1-b][1,3]thiazol-6-yl)phenyl]amino}imidazo[1,2-a]pyrimido[5,4-e]pyrimidin-5(6H)-one] showed a Ki of 10 to 100 nM.

With `CN(C)C1CCN(c2ccc(Nc3ncc4c(=O)n(-c5ccccc5Cl)c5nccn5c4n3)cc2)CC1` [Example 191, 6-(2-chlorophenyl)-2-({4-[4-(dimethylamino)piperidin-1-yl]phenyl}amino)imidazo[1,2-a]pyrimido[5,4-e]pyrimidin-5(6H)-one] the Ki was less than 10 nM.

Work on `CC(=O)N1Cc2cc(Nc3ncc4c(=O)n(-c5c(F)cccc5Cl)c5nccn5c4n3)ccc2C2(CC2)C1` [Example 241, 2-[(2′-acetyl-2′,3′-dihydro-1′H-spiro[cyclopropane-1,4′-isoquinolin]-7′-yl)amino]-6-(2-chloro-6-fluorophenyl)imidazo[1,2-a]pyrimido[5,4-e]pyrimidin-5(6H)-one] yielded a Ki of less than 10 nM.

Molecule `O=c1c2cnc(Nc3ccc(Br)cc3)nc2n2ccnc2n1-c1ccccc1Cl` [Example 343, 2-[(4-bromophenyl)amino]-6-(2-chlorophenyl)imidazo[1,2-a]pyrimido[5,4-e]pyrimidin-5(6H)-one] has a Ki of 10 to 100 nM.

`O=c1c2cnc(Nc3ccc(-c4cccnc4)cc3)nc2n2ccnc2n1-c1ccccc1Cl` [Example 45, 6-(2-chlorophenyl)-2-{[4-(pyridin-3-yl)phenyl]amino}imidazo[1,2-a]pyrimido[5,4-e]pyrimidin-5(6H)-one] showed a Ki of 10 to 100 nM.

For `CN1CCN(c2ccc(Nc3ncc4c(=O)n(-c5c(Cl)cccc5Cl)c5nccn5c4n3)cc2Cl)CC1` [Example 136, 2-{[3-chloro-4-(4-methylpiperazin-1-yl)phenyl]amino}-6-(2,6-dichlorophenyl)imidazo[1,2-a]pyrimido[5,4-e]pyrimidin-5(6H)-one], the Ki was less than 10 nM.

Work on `O=c1c2cnc(Nc3ccc(N4CC5(CCNC5)C4)cc3)nc2n2ccnc2n1-c1c(Cl)cccc1Cl` [Example 313, 2-{[4-(2,6-diazaspiro[3.4]oct-2-yl)phenyl]amino}-6-(2,6-dichlorophenyl)imidazo[1,2-a]pyrimido[5,4-e]pyrimidin-5(6H)-one] yielded a Ki of less than 10 nM.

For `Cc1nnc2n(-c3ccccc3Cl)c(=O)c3cnc(Nc4ccc(N5CCN(C)CC5)cc4)nc3n12` [Example 27, 6-(2-chlorophenyl)-9-methyl-2-{[4-(4-methylpiperazin-1-yl)phenyl]amino}pyrimido[5,4-e][1,2,4]triazolo[4,3-a]pyrimidin-5(6H)-one], the Ki was 10 to 100 nM.

For `O=C(C1CC1)N1Cc2cc(Nc3ncc4c(=O)n(-c5c(Cl)cccc5Cl)c5nccn5c4n3)ccc2C2(CC2)C1` [Example 275, 2-{[2′-(cyclopropylcarbonyl)-2′,3′-dihydro-1′H-spiro[cyclopropane-1,4′-isoquinolin]-7′-yl]amino}-6-(2,6-dichlorophenyl)imidazo[1,2-a]pyrimido[5,4-e]pyrimidin-5(6H)-one], the Ki was less than 10 nM.

`O=c1c2cnc(Nc3ccc4c(c3)CN(CCO)CC4)nc2n2ccnc2n1-c1ccccc1Cl` [Example 99, 6-(2-chlorophenyl)-2-{[2-(2-hydroxyethyl)-1,2,3,4-tetrahydroisoquinolin-7-yl]amino}imidazo[1,2-a]pyrimido[5,4-e]pyrimidin-5(6H)-one] gave a Ki of less than 10 nM.

With `O=c1c2cnc(Nc3ccc(N4CCSCC4)cc3)nc2n2ccnc2n1-c1ccccc1Cl` [Example 270, 6-(2-chlorophenyl)-2-{[4-(thiomorpholin-4-yl)phenyl]amino}imidazo[1,2-a]pyrimido[5,4-e]pyrimidin-5(6H)-one] the Ki was less than 10 nM.

`O=c1c2cnc(Nc3ccc(-c4cn5ccccc5n4)cc3)nc2n2ccnc2n1-c1ccccc1Cl` [Example 218, 6-(2-chlorophenyl)-2-{[4-(imidazo[1,2-a]pyridin-2-yl)phenyl]amino}imidazo[1,2-a]pyrimido[5,4-e]pyrimidin-5(6H)-one] gave a Ki of 10 to 100 nM.

Molecule `O=C1CCCN1CCCNc1ccc(Nc2ncc3c(=O)n(-c4ccccc4Cl)c4nccn4c3n2)cc1` [Example 253, 6-(2-chlorophenyl)-2-[(4-{[3-(2-oxopyrrolidin-1-yl)propyl]amino}phenyl)amino]imidazo[1,2-a]pyrimido[5,4-e]pyrimidin-5(6H)-one] has a Ki of less than 10 nM.

For `Cc1cc(Nc2ncc3c(=O)n(-c4ccccc4Cl)c4nccn4c3n2)ccc1N1CCCN(C)CC1` [Example 37, 6-(2-chlorophenyl)-2-{[3-methyl-4-(4-methyl-1,4-diazepan-1-yl)phenyl]amino}imidazo[1,2-a]pyrimido[5,4-e]pyrimidin-5(6H)-one], the Ki was less than 10 nM.

In the case of `Cc1ccccc1-n1c(=O)c2cnc(Nc3ccc(N4CCN(C)CC4)cc3)nc2n2ccnc12` [Example 14, 6-(2-methylphenyl)-2-{[4-(4-methylpiperazin-1-yl)phenyl]amino}imidazo[1,2-a]pyrimido[5,4-e]pyrimidin-5(6H)-one], the Ki is reported as less than 10 nM.

Work on `O=c1c2cnc(Nc3ccc(C4CCNC4)cc3)nc2n2ccnc2n1-c1c(Cl)cccc1Cl` (stereo not shown) [Example 168, 6-(2,6-dichlorophenyl)-2-{[4-(pyrrolidin-3-yl)phenyl]amino}imidazo[1,2-a]pyrimido[5,4-e]pyrimidin-5(6H)-one] yielded a Ki of less than 10 nM.

With `O=c1c2cnc(Nc3ccc4c(c3)CNCC43CC3)nc2n2ccnc2n1-c1c(Cl)cccc1Cl` [Example 109, 6-(2,6-dichlorophenyl)-2-(2′,3′-dihydro-1′H-spiro[cyclopropane-1,4′-isoquinolin]-7′-ylamino)imidazo[1,2-a]pyrimido[5,4-e]pyrimidin-5(6H)-one] the Ki was less than 10 nM.

`O=c1c2cnc(Nc3ccc(-c4cscn4)cc3)nc2n2ccnc2n1-c1ccccc1Cl` [Example 349, 6-(2-chlorophenyl)-2-{[4-(1,3-thiazol-4-yl)phenyl]amino}imidazo[1,2-a]pyrimido[5,4-e]pyrimidin-5(6H)-one] gave a Ki of 10 to 100 nM.

`CN1CCN(c2ccc(Nc3ncc4c(=O)n(-c5c(F)cccc5F)c5nccn5c4n3)cc2)CC1` [Example 98, 6-(2,6-difluorophenyl)-2-{[4-(4-methylpiperazin-1-yl)phenyl]amino}imidazo[1,2-a]pyrimido[5,4-e]pyrimidin-5(6H)-one] gave a Ki of 10 to 100 nM.

For `O=c1c2cnc(Nc3ccc(Cn4ccnc4)cc3)nc2n2ccnc2n1-c1ccccc1Cl` [Example 79, 6-(2-chlorophenyl)-2-{[4-(1H-imidazol-1-ylmethyl)phenyl]amino}imidazo[1,2-a]pyrimido[5,4-e]pyrimidin-5(6H)-one], the Ki was less than 10 nM.

`O=c1c2cnc(Nc3ccc(N4CCC(N5CCCCC5)CC4)cc3)nc2n2ccnc2n1-c1ccccc1Cl` [Example 229, 2-{[4-(1,4′-bipiperidin-1′-yl)phenyl]amino}-6-(2-chlorophenyl)imidazo[1,2-a]pyrimido[5,4-e]pyrimidin-5(6H)-one] showed a Ki of less than 10 nM.

Work on `O=c1c2cnc(Nc3ccc(N4CCN(CC5CCCCC5)CC4)cc3)nc2n2ccnc2n1-c1ccccc1Cl` [Example 30, 6-(2-chlorophenyl)-2-({4-[4-(cyclohexylmethyl)piperazin-1-yl]phenyl}amino)imidazo[1,2-a]pyrimido[5,4-e]pyrimidin-5(6H)-one] yielded a Ki of less than 10 nM.

With `CCCNC1Cc2ccc(Nc3ncc4c(=O)n(-c5c(F)cccc5Cl)c5nccn5c4n3)cc2C1` (stereo not shown) [Example 258, 6-(2-chloro-6-fluorophenyl)-2-{[2-(propylamino)-2,3-dihydro-1H-inden-5-yl]amino}imidazo[1,2-a]pyrimido[5,4-e]pyrimidin-5(6H)-one] the Ki was less than 10 nM.

Molecule `O=c1[nH][nH]c2c(-c3ccc(Nc4ncc5c(=O)n(-c6ccccc6Cl)c6nccn6c5n4)cc3)cccc12` [Example 223, 6-(2-chlorophenyl)-2-{[4-(3-oxo-2,3-dihydro-1H-indazol-7-yl)phenyl]amino}imidazo[1,2-a]pyrimido[5,4-e]pyrimidin-5(6H)-one] has a Ki of less than 10 nM.

For `O=c1c2cnc(Nc3ccc(NCCN4CCCC4)cc3)nc2n2ccnc2n1-c1ccccc1Cl` [Example 246, 6-(2-chlorophenyl)-2-[(4-{[2-(pyrrolidin-1-yl)ethyl]amino}phenyl)amino]imidazo[1,2-a]pyrimido[5,4-e]pyrimidin-5(6H)-one], the Ki was less than 10 nM.

`O=c1c2cnc(Nc3ccc(N4CCC(O)CC4)cc3)nc2n2ccnc2n1-c1c(Cl)cccc1Cl` [Example 166, 6-(2,6-dichlorophenyl)-2-{[4-(4-hydroxypiperidin-1-yl)phenyl]amino}imidazo[1,2-a]pyrimido[5,4-e]pyrimidin-5(6H)-one] showed a Ki of less than 10 nM.

`O=C(Nc1ccncc1)c1ccc(Nc2ncc3c(=O)n(-c4ccccc4Cl)c4nccn4c3n2)cc1` [Example 49, 4-{[6-(2-chlorophenyl)-5-oxo-5,6-dihydroimidazo[1,2-a]pyrimido[5,4-e]pyrimidin-2-yl]amino}-N-(pyridin-4-yl)benzamide] gave a Ki of 10 to 100 nM.

In the case of `CN1CCCN(c2ccc(Nc3ncc4c(=O)n(-c5ccccc5Cl)c5nccn5c4n3)cc2CO)CC1` [Example 100, 6-(2-chlorophenyl)-2-{[3-(hydroxymethyl)-4-(4-methyl-1,4-diazepan-1-yl)phenyl]amino}imidazo[1,2-a]pyrimido[5,4-e]pyrimidin-5(6H)-one], the Ki is reported as less than 10 nM.

For `CN1CCN(c2c(Cl)cc(Nc3ncc4c(=O)n(-c5ccccc5Cl)c5nccn5c4n3)cc2C(F)(F)F)CC1` [Example 353, 2-{[3-chloro-4-(4-methylpiperazin-1-yl)-5-(trifluoromethyl)phenyl]amino}-6-(2-chlorophenyl)imidazo[1,2-a]pyrimido[5,4-e]pyrimidin-5(6H)-one], the Ki was greater than 100 nM.

`CCN(CC)CCCOc1ccc(Nc2ncc3c(=O)n(-c4ccccc4Cl)c4nccn4c3n2)cc1C` [Example 103, 6-(2-chlorophenyl)-2-({4-[3-(diethylamino)propoxy]-3-methylphenyl}amino)imidazo[1,2-a]pyrimido[5,4-e]pyrimidin-5(6H)-one] was tested, and the Ki was less than 10 nM.
